“And” between values parts separate entries of the source, which are not always exact repeats. Equal values may be shown once. Read-outs that look alike come from different tables or passages of the source.
Key:
human Nav1.7 = molecular target: T1, human Nav1.7 (Homo sapiens, UniProt Q15858); experiment: PatchXpress sodium current measurement, inactivated state block, Nav1.7; type: cell-based; details: channels stably expressed in HEK 293 cells, double-pulse protocol, 22° C.
T1 construct: expressed in transfected cells
T1 sequence (Q15858 whole entry): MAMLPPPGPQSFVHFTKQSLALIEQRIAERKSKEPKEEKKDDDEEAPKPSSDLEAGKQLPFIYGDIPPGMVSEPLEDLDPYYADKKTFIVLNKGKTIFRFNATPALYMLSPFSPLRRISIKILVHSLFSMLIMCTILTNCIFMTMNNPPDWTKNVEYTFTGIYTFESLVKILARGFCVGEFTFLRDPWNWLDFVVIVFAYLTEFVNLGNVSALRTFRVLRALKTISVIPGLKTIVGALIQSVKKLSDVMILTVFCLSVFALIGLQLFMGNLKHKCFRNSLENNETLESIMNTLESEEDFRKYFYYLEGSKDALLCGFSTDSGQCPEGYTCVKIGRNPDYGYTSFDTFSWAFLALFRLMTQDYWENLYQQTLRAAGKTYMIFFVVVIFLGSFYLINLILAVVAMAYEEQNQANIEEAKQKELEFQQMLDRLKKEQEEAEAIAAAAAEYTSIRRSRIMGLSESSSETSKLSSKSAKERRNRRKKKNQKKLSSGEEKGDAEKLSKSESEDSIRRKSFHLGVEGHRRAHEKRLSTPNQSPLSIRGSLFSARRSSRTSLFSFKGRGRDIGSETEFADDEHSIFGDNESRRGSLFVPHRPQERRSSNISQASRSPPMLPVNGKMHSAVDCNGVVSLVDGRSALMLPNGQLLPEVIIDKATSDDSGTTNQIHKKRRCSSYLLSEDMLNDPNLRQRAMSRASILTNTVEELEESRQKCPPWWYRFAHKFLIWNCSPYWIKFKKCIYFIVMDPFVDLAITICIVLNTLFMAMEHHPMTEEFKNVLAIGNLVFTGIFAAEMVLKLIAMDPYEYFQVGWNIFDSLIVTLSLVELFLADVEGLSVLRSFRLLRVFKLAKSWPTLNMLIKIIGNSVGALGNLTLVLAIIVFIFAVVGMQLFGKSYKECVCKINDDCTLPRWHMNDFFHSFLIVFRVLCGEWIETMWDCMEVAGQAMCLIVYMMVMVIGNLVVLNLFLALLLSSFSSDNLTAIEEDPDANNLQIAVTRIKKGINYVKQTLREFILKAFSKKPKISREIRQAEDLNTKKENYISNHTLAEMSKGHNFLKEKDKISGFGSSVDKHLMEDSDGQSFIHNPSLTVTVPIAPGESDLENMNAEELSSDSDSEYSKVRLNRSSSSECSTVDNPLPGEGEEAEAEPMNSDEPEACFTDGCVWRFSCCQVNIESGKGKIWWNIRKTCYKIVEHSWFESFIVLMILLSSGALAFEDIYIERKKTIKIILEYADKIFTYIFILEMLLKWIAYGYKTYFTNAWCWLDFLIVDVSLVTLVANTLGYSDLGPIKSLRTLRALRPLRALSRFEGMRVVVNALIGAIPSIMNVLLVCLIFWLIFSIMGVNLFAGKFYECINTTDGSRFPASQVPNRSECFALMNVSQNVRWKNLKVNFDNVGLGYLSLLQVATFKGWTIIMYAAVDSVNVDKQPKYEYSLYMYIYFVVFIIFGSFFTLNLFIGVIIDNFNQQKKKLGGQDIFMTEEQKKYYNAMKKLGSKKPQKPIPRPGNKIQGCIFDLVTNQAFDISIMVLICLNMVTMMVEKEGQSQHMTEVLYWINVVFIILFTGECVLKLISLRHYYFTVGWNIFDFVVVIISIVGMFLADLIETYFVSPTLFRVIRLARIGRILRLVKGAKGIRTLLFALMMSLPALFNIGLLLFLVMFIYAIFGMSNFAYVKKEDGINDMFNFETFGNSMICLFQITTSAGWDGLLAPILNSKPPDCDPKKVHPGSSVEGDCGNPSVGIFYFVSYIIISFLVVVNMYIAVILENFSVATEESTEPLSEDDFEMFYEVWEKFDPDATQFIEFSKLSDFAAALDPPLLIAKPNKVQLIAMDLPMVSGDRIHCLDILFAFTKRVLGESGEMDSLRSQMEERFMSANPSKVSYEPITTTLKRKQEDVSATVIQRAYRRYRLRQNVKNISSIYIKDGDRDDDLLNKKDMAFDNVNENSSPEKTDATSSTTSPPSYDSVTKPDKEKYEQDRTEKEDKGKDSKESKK
Method: (§1) Cell Based Assays for Nav 1.7 and Nav 1.5 Activity
(§2) Compounds were tested on human Nav1.7 and Nav1.5 channels stably expressed in HEK 293 cells.
(§3) Sodium Current Measurements on the PatchXpress 7000:
(§4) To measure inactivated state block of sodium channels, test compounds were characterized in an automated PatchXpress® assay (Molecular Devices) using a double-pulse protocol on human Nav1.7 and Nav1.5 channels stably expressed in HEK 293 cells. Cells were held at a potential 20 mV negative to the potential at which ˜50% of the channels are inactivated. A 8000 ms pre-pulse 7 mV positive to the potential at which ˜50% of the channels are inactivated was given followed by a hyperpolarizing 2 ms pulse to −120 mV and a 20 ms test pulse to −20 mV. The protocol was applied to cells in the absence, presence of compound and after washout. The temperature of PatchXpress® instruments was maintained at 22° C. The following recording solutions were used. Internal solution (mM): 30 CsCl, 5 HEPES, 10 EGTA, 120 CsF, 5 NaF, 2 MgCl2, pH 7.3 with CsOH. External solution (mM): 120 NMDG, 40 NaCl, 1 KCl, 0.5 MgCl2, 5 HEPES, 2.7 CaCl2, pH 7.5 with NMDG-OH. Estimated IC50 values were calculated based on at least two compound concentrations tested. For all electrophysiology experiments, offline analysis was used to correct for current rundown and to determine percent inhibition as a function of drug concentration. IC50 values were determined by fitting to the Hill equation.

human Nav1.5 = molecular target: T2, human Nav1.5 (Homo sapiens, UniProt Q14524); experiment: PatchXpress sodium current measurement, inactivated state block, Nav1.5; type: cell-based; details: determined by PatchXpress measurement, HEK 293 cells
T2 construct: expressed in transfected cells
T2 sequence (Q14524 whole entry): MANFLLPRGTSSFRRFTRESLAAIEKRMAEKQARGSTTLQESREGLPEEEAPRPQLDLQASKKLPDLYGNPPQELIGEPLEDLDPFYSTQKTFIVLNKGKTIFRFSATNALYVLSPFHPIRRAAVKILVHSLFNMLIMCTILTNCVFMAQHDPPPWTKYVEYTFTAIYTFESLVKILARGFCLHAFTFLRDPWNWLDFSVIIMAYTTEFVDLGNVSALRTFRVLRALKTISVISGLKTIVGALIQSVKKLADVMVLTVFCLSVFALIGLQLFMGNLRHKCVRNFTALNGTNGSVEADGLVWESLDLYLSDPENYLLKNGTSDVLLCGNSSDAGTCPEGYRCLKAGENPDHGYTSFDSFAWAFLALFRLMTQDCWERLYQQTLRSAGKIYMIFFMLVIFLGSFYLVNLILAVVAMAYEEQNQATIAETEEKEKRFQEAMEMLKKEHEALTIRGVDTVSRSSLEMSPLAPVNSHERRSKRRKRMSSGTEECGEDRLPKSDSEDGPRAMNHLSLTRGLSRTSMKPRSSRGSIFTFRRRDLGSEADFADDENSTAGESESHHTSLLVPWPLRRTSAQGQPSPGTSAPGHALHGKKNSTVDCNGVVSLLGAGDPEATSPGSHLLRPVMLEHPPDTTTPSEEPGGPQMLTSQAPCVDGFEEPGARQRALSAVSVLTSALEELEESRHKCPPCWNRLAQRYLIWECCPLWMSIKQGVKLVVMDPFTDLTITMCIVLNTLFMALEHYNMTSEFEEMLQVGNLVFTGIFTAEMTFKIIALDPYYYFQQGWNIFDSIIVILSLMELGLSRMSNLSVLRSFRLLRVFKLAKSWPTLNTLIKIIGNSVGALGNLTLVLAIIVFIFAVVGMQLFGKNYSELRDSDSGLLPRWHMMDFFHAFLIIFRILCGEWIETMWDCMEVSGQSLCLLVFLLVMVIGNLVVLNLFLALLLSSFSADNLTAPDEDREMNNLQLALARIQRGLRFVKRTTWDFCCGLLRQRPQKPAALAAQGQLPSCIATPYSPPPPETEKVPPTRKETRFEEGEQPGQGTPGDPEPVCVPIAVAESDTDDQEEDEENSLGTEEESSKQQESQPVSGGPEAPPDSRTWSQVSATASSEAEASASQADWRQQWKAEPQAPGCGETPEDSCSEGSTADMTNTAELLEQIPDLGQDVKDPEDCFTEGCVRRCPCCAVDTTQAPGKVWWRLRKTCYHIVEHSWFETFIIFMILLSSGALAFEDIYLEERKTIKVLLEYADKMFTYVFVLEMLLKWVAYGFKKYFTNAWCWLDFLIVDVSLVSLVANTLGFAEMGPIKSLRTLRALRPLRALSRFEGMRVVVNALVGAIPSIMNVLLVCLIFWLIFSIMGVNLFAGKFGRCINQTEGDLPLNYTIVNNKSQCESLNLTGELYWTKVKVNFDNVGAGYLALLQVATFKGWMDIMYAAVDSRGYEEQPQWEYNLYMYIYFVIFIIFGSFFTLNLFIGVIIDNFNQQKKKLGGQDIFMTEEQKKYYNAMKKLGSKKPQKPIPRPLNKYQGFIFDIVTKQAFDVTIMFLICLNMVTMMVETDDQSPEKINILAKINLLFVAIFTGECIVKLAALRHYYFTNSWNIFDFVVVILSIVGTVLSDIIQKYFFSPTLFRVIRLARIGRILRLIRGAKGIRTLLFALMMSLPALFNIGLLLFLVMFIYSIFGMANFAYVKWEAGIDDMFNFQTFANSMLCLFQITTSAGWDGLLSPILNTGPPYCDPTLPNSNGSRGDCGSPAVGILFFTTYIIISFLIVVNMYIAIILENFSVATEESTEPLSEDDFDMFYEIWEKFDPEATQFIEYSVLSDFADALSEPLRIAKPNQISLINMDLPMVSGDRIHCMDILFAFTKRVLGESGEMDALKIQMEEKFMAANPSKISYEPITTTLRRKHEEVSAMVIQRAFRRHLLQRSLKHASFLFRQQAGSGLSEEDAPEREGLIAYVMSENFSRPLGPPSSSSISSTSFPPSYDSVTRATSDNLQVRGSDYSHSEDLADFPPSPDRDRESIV
Method: as §1, §2, §3, §4

[1] = read-out: potency for the Nav 1.7 sodium ion channel (1.7=)

In the case of CNCC#Cc1cccc([C@@H](C)n2c(=O)oc3cc(S(=O)(=O)Nc4cccc(F)n4)c(F)cc32)c1 [Ex21-2, 5-fluoro-N-(6-fluoropyridin-2-yl)-3-[(1R)-1-{3-[3-(methylamino)prop-1-yn-1-yl]phenyl}ethyl]-2-oxo-2,3-dihydro-1,3-benzoxazole-6-sulfonamide], the IC50 (human Nav1.7; [1]) is reported as 245 nM and the “ratio of Nav 1.5:Nav 1.7 potency” value (human Nav1.5) is reported as 122.

For Cl.O=c1oc2cc(S(=O)(=O)Nc3cccc(F)n3)c(F)cc2n1Cc1cccc2c1CNCC2F (racemic) [Ex5-9, (+/−)-5-Fluoro-3-((4-fluoro-1,2,3,4-tetrahydroisoquinolin-8-yl)methyl)-N-(6-fluoropyridin-2-yl)-2-oxo-2,3-dihydrobenzo[d]oxazole-6-sulfonamide hydrochloride], the IC50 (human Nav1.7; [1]) was 1140 nM and the “ratio of Nav 1.5:Nav 1.7 potency” value (human Nav1.5) was 26.

Cc1cc2c(cc1S(=O)(=O)Nc1cccc(F)n1)oc(=O)n2[C@H](C)c1cccc(C)c1Br [Ex18-8, 3-[(1R)-1-(2-bromo-3-methylphenyl)ethyl]-N-(6-fluoropyridin-2-yl)-5-methyl-2-oxo-2,3-dihydro-1,3-benzoxazole-6-sulfonamide] was tested, and the IC50 (human Nav1.7; [1]) was 107 nM and the “ratio of Nav 1.5:Nav 1.7 potency” value (human Nav1.5) was 102.

With C[C@H](c1ccccc1C1=C[C@@H]2CC[C@H](C1)N2)n1c(=O)oc2cc(S(=O)(=O)Nc3cccc(F)n3)c(F)cc21 [Ex7-8, 3-[(1R)-1-{2-[(1S,5R)-8-azabicyclo[3.2.1]oct-2-en-3-yl]phenyl}ethyl]-5-fluoro-N-(6-fluoropyridin-2-yl)-2-oxo-2,3-dihydro-1,3-benzoxazole-6-sulfonamide] the IC50 (human Nav1.7; potency for the Nav 1.7 sodium ion channel (1.7=)) was 81 nM and the “ratio of Nav 1.5:Nav 1.7 potency” value (human Nav1.5) was 681.

For C[C@H](c1ccccc1C1CNC1)n1c(=O)oc2cc(S(=O)(=O)Nc3cccc(F)n3)c(F)cc21 [Ex10-3, (R)-3-(1-(2-(Azetidin-3-yl)phenyl)ethyl)-5-fluoro-N-(6-fluoropyridin-2-yl)-2-oxo-2,3-dihydrobenzo[d]oxazole-6-sulfonamide], the IC50 (human Nav1.7; [1]) was 39 nM and the “ratio of Nav 1.5:Nav 1.7 potency” value (human Nav1.5) was 1306.

In the case of Cc1cc2c(cc1S(=O)(=O)Nc1cccc(F)n1)oc(=O)n2[C@H](C)c1cccc(Br)c1 [Ex18-6, 3-[(1R)-1-(3-bromophenyl)ethyl]-N-(6-fluoropyridin-2-yl)-5-methyl-2-oxo-2,3-dihydro-1,3-benzoxazole-6-sulfonamide], the IC50 (human Nav1.7; [1]) is reported as 57 nM and the “ratio of Nav 1.5:Nav 1.7 potency” value (human Nav1.5) is reported as 30.

For NC1CCc2cccc(Cn3c(=O)oc4cc(S(=O)(=O)Nc5cccc(F)n5)ccc43)c2C1 (single isomer, unassigned) [Ex13-6, (S or R)-3-[(7-amino-5,6,7,8-tetrahydronaphthalen-1-yl)methyl]-N-(6-fluoropyridin-2-yl)-2-oxo-2,3-dihydro-1,3-benzoxazole-6-sulfonamide], the IC50 (human Nav1.7; [1]) was 147 nM and the “ratio of Nav 1.5:Nav 1.7 potency” value (human Nav1.5) was 43.

For Cc1cc2c(cc1S(=O)(=O)Nc1cccc(F)n1)oc(=O)n2[C@H](C)c1cccc(C#CCN)c1C [Ex21-24, 3-{(1R)-1-[3-(3-aminoprop-1-yn-1-yl)-2-methylphenyl]ethyl}-N-(6-fluoropyridin-2-yl)-5-methyl-2-oxo-2,3-dihydro-1,3-benzoxazole-6-sulfonamide], the IC50 (human Nav1.7; [1]) was 102 nM and the “ratio of Nav 1.5:Nav 1.7 potency” value (human Nav1.5) was 240.

In the case of Cc1cccc([C@@H](C)n2c(=O)oc3cc(S(=O)(=O)Nc4cccc(F)n4)c(F)cc32)c1C#C[C@@H]1CCCC[C@@H]1N [Ex21-27, 3-[(1R)-1-(2-{[(1S,2S)-2-aminocyclohexyl]-ethynyl}-3-methylphenyl)ethyl]-5-fluoro-N-(6-fluoropyridin-2-yl)-2-oxo-2,3-dihydro-1,3-benzoxazole-6-sulfonamide], the IC50 (human Nav1.7; [1]) is reported as 32 nM and the “ratio of Nav 1.5:Nav 1.7 potency” value (human Nav1.5) is reported as 476.

NC1CCc2cccc(Cn3c(=O)oc4cc(S(=O)(=O)Nc5cccc(F)n5)c(F)cc43)c2C1 (single isomer, unassigned) [Ex13-5, (R or S)-3-[(7-amino-5,6,7,8-tetrahydronaphthalen-1-yl)methyl]-5-fluoro-N-(6-fluoropyridin-2-yl)-2-oxo-2,3-dihydro-1,3-benzoxazole-6-sulfonamide] was tested, and the IC50 (human Nav1.7; [1]) was 40 nM and the “ratio of Nav 1.5:Nav 1.7 potency” value (human Nav1.5) was 914.

With C[C@H](c1cccc(CCN)c1)n1c(=O)oc2cc(S(=O)(=O)Nc3cccc(F)n3)c(F)cc21 [Ex19-11, 3-{(1R)-1-[3-(2-aminoethyl)phenyl]ethyl}-5-fluoro-N-(6-fluoropyridin-2-yl)-2-oxo-2,3-dihydro-1,3-benzoxazole-6-sulfonamide] the IC50 (human Nav1.7; [1]) was 103 nM and the “ratio of Nav 1.5:Nav 1.7 potency” value (human Nav1.5) was 244.

In the case of C[C@H](c1cccc(C2=CCNCC2)c1)n1c(=O)oc2cc(S(=O)(=O)Nc3cccc(F)n3)c(F)cc21 [Ex7-10, 5-fluoro-N-(6-fluoropyridin-2-yl)-2-oxo-3-{(1R)-1-[3-(1,2,3,6-tetrahydropyridin-4-yl)phenyl]ethyl}-2,3-dihydro-1,3-benzoxazole-6-sulfonamide], the IC50 (human Nav1.7; [1]) is reported as 127 nM and the “ratio of Nav 1.5:Nav 1.7 potency” value (human Nav1.5) is reported as 331.

C[C@H](c1ccccc1C#C[C@H]1CCCC[C@@H]1N)n1c(=O)oc2cc(S(=O)(=O)Nc3cccc(F)n3)c(F)cc21 (mixture of isomers) [Ex8-5, 3-[(1R)-1-(2-{[(1R,2S and 1S, 2R)-2-aminocyclohexyl]ethynyl}phenyl)ethyl]-5-fluoro-N-(6-fluoropyridin-2-yl)-2-oxo-2,3-dihydro-1,3-benzoxazole-6-sulfonamide] was tested, and the IC50 (human Nav1.7; [1]) was 25 nM and the “ratio of Nav 1.5:Nav 1.7 potency” value (human Nav1.5) was 714.

With C[C@H](c1cccc(CCCN2CCC2)c1)n1c(=O)oc2cc(S(=O)(=O)Nc3cccc(F)n3)c(F)cc21 [Ex22-4, 3-[(1R)-1-{3-[3-(azetidin-1-yl)propyl]phenyl}ethyl]-5-fluoro-N-(6-fluoro-pyridin-2-yl)-2-oxo-2,3-dihydro-1,3-benzoxazole-6-sulfonamide] the IC50 (human Nav1.7; [1]) was 169 nM and the “ratio of Nav 1.5:Nav 1.7 potency” value (human Nav1.5) was 178.

With Cc1cc2c(cc1S(=O)(=O)Nc1cccc(F)n1)oc(=O)n2[C@H](C)c1cccc(C#CCN2CCC2)c1 [Ex21-20, 3-[(1R)-1-{3-[3-(azetidin-1-yl)prop-1-yn-l-yl]phenyl}ethyl]-N-(6-fluoropyridin-2-yl)-5-methyl-2-oxo-2,3-dihydro-1,3-benzoxazole-6-sulfonamide] the IC50 (human Nav1.7; [1]) was 200 nM and the “ratio of Nav 1.5:Nav 1.7 potency” value (human Nav1.5) was 30.

For C[C@H](c1ccccc1C1CN(S(C)(=O)=O)C1)n1c(=O)oc2cc(S(=O)(=O)Nc3cccc(F)n3)c(F)cc21 [Ex11-1], the IC50 (human Nav1.7; [1]) was 213 nM and the “ratio of Nav 1.5:Nav 1.7 potency” value (human Nav1.5) was 34.

In the case of C[C@H](c1cccc(C#CC2(N)CC2)c1)n1c(=O)oc2cc(S(=O)(=O)Nc3cccc(F)n3)c(F)cc21 [Ex21-12, 3-[(1R)-1-{3-[(1-aminocyclopropyl)ethynyl]phenyl}ethyl]-5-fluoro-N-(6-fluoropyridin-2-yl)-2-oxo-2,3-dihydro-1,3-benzoxazole-6-sulfonamide], the IC50 (human Nav1.7; [1]) is reported as 258 nM and the “ratio of Nav 1.5:Nav 1.7 potency” value (human Nav1.5) is reported as 116.

C[C@H](c1ccccc1C#CC(N)CO)n1c(=O)oc2cc(S(=O)(=O)Nc3cccc(F)n3)c(F)cc21 (stereo partly drawn) [Ex8-4, 3-{(1R)-1-[2-(3-amino-4-hydroxybut-1-yn-1-yl)phenyl]ethyl}-5-fluoro-N-(6-fluoropyridin-2-yl)-2-oxo-2,3-dihydro-1,3-benzoxazole-6-sulfonamide] was tested, and the IC50 (human Nav1.7; [1]) was 9 nM and the “ratio of Nav 1.5:Nav 1.7 potency” value (human Nav1.5) was 822.

With C[C@H](c1ccccc1C#CCN1CCC(O)C1)n1c(=O)oc2cc(S(=O)(=O)Nc3cccc(F)n3)c(F)cc21 (stereo partly drawn) [Ex8-8, 5-fluoro-N-(6-fluoropyridin-2-yl)-3-[(1R)-1-{2-[3-(3-hydroxypyrrolidin-1-yl)prop-1-yn-1-yl]phenyl}ethyl]-2-oxo-2,3-dihydro-1,3-benzoxazole-6-sulfonamide] the IC50 (human Nav1.7; [1]) was 299 nM and the “ratio of Nav 1.5:Nav 1.7 potency” value (human Nav1.5) was 75.

For C[C@H](c1cccc(C#CCN2CCC2)c1)n1c(=O)oc2cc(S(=O)(=O)Nc3cccc(F)n3)c(F)cc21 [Ex21-13, 3-[(1R)-1-{3-[3-(azetidin-1-yl)prop-1-yn-1-yl]phenyl}ethyl]-5-fluoro-N-(6-fluoropyridin-2-yl)-2-oxo-2,3-dihydro-1,3-benzoxazole-6-sulfonamide], the IC50 (human Nav1.7; [1]) was 116 nM and the “ratio of Nav 1.5:Nav 1.7 potency” value (human Nav1.5) was 258.

C[C@H](c1ccccc1CN)n1c(=O)oc2cc(S(=O)(=O)Nc3cccc(F)n3)c(F)cc21 [Ex9-1, (R)-3-(1-(2-(aminomethyl)phenyl)ethyl)-5-fluoro-N-(6-fluoropyridin-2-yl)-2-oxo-2,3-dihydrobenzo[d]oxazole-6-sulfonamide] was tested, and the IC50 (human Nav1.7; [1]) was 24 nM and the “ratio of Nav 1.5:Nav 1.7 potency” value (human Nav1.5) was 1525.

With C[C@H](c1ccccc1C1=CCNCCC1)n1c(=O)oc2cc(S(=O)(=O)Nc3cccc(F)n3)c(F)cc21 [Ex7-7, 5-fluoro-N-(6-fluoropyridin-2-yl)-2-oxo-3-{(1R)-1-[2-(2,5,6,7-tetrahydro-1H-azepin-4-yl)phenyl]ethyl}-2,3-dihydro-1,3-benzoxazole-6-sulfonamide] the IC50 (human Nav1.7; [1]) was 41 nM and the “ratio of Nav 1.5:Nav 1.7 potency” value (human Nav1.5) was 239.

C[C@H](c1ccccc1CCN)n1c(=O)oc2cc(S(=O)(=O)Nc3cccc(F)n3)c(F)cc21 [Ex24-2, 3-{(1R)-1-[2-(2-aminoethyl)phenyl]ethyl}-5-fluoro-N-(6-fluoropyridin-2-yl)-2-oxo-2,3-dihydro-1,3-benzoxazole-6-sulfonamide] was tested, and the IC50 (human Nav1.7; [1]) was 27 nM and 18 nM.

Reference: patent US9624208B2, “Benzoxazolinone compounds with selective activity in voltage-gated sodium channels” (Merck Sharp & Dohme Corp., priority 2012, dated 2017)
